Experimental findings from US8354422B2, “Pyrimidine inhibitors of kinase activity” (Abbott Laboratories Inc., priority 2009, dated 2013) are described below.

What is called IC50 is the concentration that inhibits the measured activity by half.

T1 sequence (P08069 954-1367): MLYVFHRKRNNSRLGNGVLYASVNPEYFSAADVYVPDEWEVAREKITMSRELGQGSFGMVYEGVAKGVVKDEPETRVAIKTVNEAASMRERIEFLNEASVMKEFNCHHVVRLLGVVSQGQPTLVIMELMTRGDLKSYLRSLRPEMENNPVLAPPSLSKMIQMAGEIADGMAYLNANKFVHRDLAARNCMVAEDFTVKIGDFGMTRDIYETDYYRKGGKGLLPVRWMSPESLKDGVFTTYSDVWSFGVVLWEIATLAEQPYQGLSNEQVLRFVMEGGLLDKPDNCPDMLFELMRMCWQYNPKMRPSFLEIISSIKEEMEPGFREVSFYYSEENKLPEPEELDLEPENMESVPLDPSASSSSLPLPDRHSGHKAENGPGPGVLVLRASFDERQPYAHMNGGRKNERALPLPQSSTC

The assay addresses T1, C-terminal GST-tagged, recombinant, human IGF-1R, amino acids 954-1367 (Homo sapiens, UniProt P08069).
T1 construct: human IGF-1R, amino acids 954-1367 expressed by baculovirus in Sf21 cells; GST (C); purchased Cell Signaling Technology; host or cells: baculovirus in Sf21 cells
As to the kind of experiment: IGF-1R kinase activity, homogenous time-resolved fluorescence (HTRF) in vitro kinase assay. It is filed as biochemical. Particulars: IGF-1R kinase HTRF assay, ATP 50 μM, biotinylated peptide substrate 0.5 μM, 60 minutes at room temperature. The protocol: IGF-1R kinase activity was assayed by a homogenous time-resolved fluorescence (HTRF) in vitro kinase assay (Mathis, G., HTRF(R) Technology. J Biomol Screen, 1999. 4(6): p. 309-314). Specifically, 10 μL C-terminal GST-tagged, recombinant, human IGF-1R, amino acids 954-1367 expressed by baculovirus in Sf21 cells (Cell Singaling Technology) was mixed with 10 μL inhibitor (various concentrations, 2% final DMSO) and 10 μL of ATP (50 μM final concentration) in reaction buffer (50 mM HEPES, pH […], 2 mM MnCl2, 0.1% BSA and 1 mM DTT, 40 μL final volume). The reaction was initiated by addition of 10 μL of biotinylated peptide substrate (Biotin-Ahx-[…], 0.5 μM final concentration) in a black 384-well plate (Packard). After 60 minutes incubation at room temperature, the reaction was quenched by addition of 60 μL stop/revelation buffer to give 30 mM EDTA, 1 μg/mL streptavidin-APC (Prozyme), 50 ng/mL anti-phosphotyrosine mAb PT66-K Europium Cryptate, 30 mM HEPES, pH 7.5, 120 mM KF, 0.005% Tween-20, 0.05% BSA). The quenched reaction was allowed to stand at room temperature for 1 hour and then read in a time-resolved fluorescence detector (Envision, Perkin Elmer) at 615 nm and 665 nm simultaneously. The ratio between the signal of 615 nm and 665 nm was used in the calculation of the IC50.
Background: TR-FRET usually uses a lanthanide donor and a delayed reading to cut background.
As for `CN(C)CCc1cccc(Nc2nccc(-c3c(-c4ccc(OCc5ccccc5)cc4)nc4ccccn34)n2)c1` [Example 1, 4-{2-[4-(benzyloxy)phenyl]imidazo[1,2-a]pyridin-3-yl}-N-{3-[2-(dimethylamino)ethyl]phenyl}pyrimidin-2-amine], the IC50 was less than 25 nM.
For `COc1cc(N2CCOCC2)ccc1Nc1nccc(-c2c(-c3ccc(OCc4ccccc4)cc3)nc3ccccn23)n1` [Example 2, 4-{2-[4-(benzyloxy)phenyl]imidazo[1,2-a]pyridin-3-yl}-N-(2-methoxy-4-morpholin-4-ylphenyl)pyrimidin-2-amine] the value was 101 to 500 nM; for `COc1ccccc1Nc1nccc(-c2c(-c3ccc(OCc4ccccc4)cc3)nc3ccccn23)n1` [Example 3, 4-{2-[4-(benzyloxy)phenyl]imidazo[1,2-a]pyridin-3-yl}-N-(2-methoxyphenyl)pyrimidin-2-amine], more than 1000 nM; for `CS(=O)(=O)c1cccc(Nc2nccc(-c3c(-c4ccc(OCc5ccccc5)cc4)nc4ccccn34)n2)c1` [Example 4, 4-{2-[4-(benzyloxy)phenyl]imidazo[1,2-a]pyridin-3-yl}-N-[3-(methylsulfonyl)phenyl]pyrimidin-2-amine], more than 1000 nM.
The result for `CN(C)S(=O)(=O)c1cccc(Nc2nccc(-c3c(-c4ccc(OCc5ccccc5)cc4)nc4ccccn34)n2)c1` [Example 5, 3-[(4-{2-[4-(benzyloxy)phenyl]imidazo[1,2-a]pyridin-3-yl}pyrimidin-2-yl)amino]-N,N-dimethylbenzenesulfonamide] reads more than 1000 nM; that for `CS(=O)(=O)c1ccc(Nc2nccc(-c3c(-c4ccc(OCc5ccccc5)cc4)nc4ccccn34)n2)cc1` [Example 6, 4-{2-[4-(benzyloxy)phenyl]imidazo[1,2-a]pyridin-3-yl}-N-[4-(methylsulfonyl)phenyl]pyrimidin-2-amine], more than 1000 nM; that for `c1ccc(COc2ccc(-c3nc4ccccn4c3-c3ccnc(Nc4ccccc4)n3)cc2)cc1` [Example 7, 4-{2-[4-(benzyloxy)phenyl]imidazo[1,2-a]pyridin-3-yl}-N-phenylpyrimidin-2-amine], more than 1000 nM.
The result for `CN(C)CCc1cccc(Nc2nccc(-c3c(-c4ccc(OCc5ccccc5)cc4F)nc4ccccn34)n2)c1` [Example 8, 4-{2-[4-(benzyloxy)-2-fluorophenyl]imidazo[1,2-a]pyridin-3-yl}-N-{3-[2-(dimethylamino)ethyl]phenyl}pyrimidin-2-amine] reads 25 to 100 nM; that for `CN(C)CCc1cccc(Nc2nccc(-c3c(-c4ccc(OCc5ccccc5)c(F)c4)nc4ccccn34)n2)c1` [Example 9, 4-{2-[4-(benzyloxy)-3-fluorophenyl]imidazo[1,2-a]pyridin-3-yl}-N-{3-[2-(dimethylamino)ethyl]phenyl}pyrimidin-2-amine], 25 to 100 nM; that for `Cc1cc(OCc2ccccc2)ccc1-c1nc2ccccn2c1-c1ccnc(Nc2cccc(CCN(C)C)c2)n1` [Example 10, 4-{2-[4-(benzyloxy)-2-methylphenyl]imidazo[1,2-a]pyridin-3-yl}-N-{3-[2-(dimethylamino)ethyl]phenyl}pyrimidin-2-amine], 101 to 500 nM.
For the molecule `CN(C)CCc1cccc(Nc2nccc(-c3c(-c4ccc(OCc5ccccc5)c(Cl)c4)nc4ccccn34)n2)c1` [Example 11, 4-{2-[4-(benzyloxy)-3-chlorophenyl]imidazo[1,2-a]pyridin-3-yl}-N-{3-[2-(dimethylamino)ethyl]phenyl}pyrimidin-2-amine], the IC50 was 101 to 500 nM.
For `COc1cc(-c2nc3ccccn3c2-c2ccnc(Nc3cccc(CCN(C)C)c3)n2)ccc1OCc1ccccc1` [Example 12, 4-{2-[4-(benzyloxy)-3-methoxyphenyl]imidazo[1,2-a]pyridin-3-yl}-N-{3-[2-(dimethylamino)ethyl]phenyl}pyrimidin-2-amine] the value was 101 to 500 nM; for `COc1cc(N2CCC(N3CCN(C)CC3)CC2)ccc1Nc1nccc(-c2c(-c3ccc(OCc4ccccc4)cc3)nc3ccccn23)n1` [Example 13, 4-{2-[4-(benzyloxy)phenyl]imidazo[1,2-a]pyridin-3-yl}-N-{2-methoxy-4-[4-(4-methylpiperazin-1-yl)piperidin-1-yl]phenyl}pyrimidin-2-amine], 101 to 500 nM; for `Cc1cc(Nc2nccc(-c3c(-c4ccc(OCc5ccccc5)cc4)nc4ccccn34)n2)n[nH]1` [Example 14, 4-{2-[4-(benzyloxy)phenyl]imidazo[1,2-a]pyridin-3-yl}-N-(5-methyl-1H-pyrazol-3-yl)pyrimidin-2-amine], more than 1000 nM.
For `c1ccc(COc2ccc(-c3nc4ccccn4c3-c3ccnc(Nc4cc(C5CC5)n[nH]4)n3)cc2)cc1` [Example 15, 4-{2-[4-(benzyloxy)phenyl]imidazo[1,2-a]pyridin-3-yl}-N-(3-cyclopropyl-1H-pyrazol-5-yl)pyrimidin-2-amine] the value was more than 1000 nM.
On to `COc1ccccc1COc1ccc(-c2nc3ccccn3c2-c2ccnc(Nc3cccc(CCN(C)C)c3)n2)cc1` [Example 16, N-{3-[2-(dimethylamino)ethyl]phenyl}-4-(2-{4-[(2-methoxybenzyl)oxy]phenyl}imidazo[1,2-a]pyridin-3-yl)pyrimidin-2-amine], for which the IC50 was 101 to 500 nM.
For `COc1ccc(COc2ccc(-c3nc4ccccn4c3-c3ccnc(Nc4cccc(CCN(C)C)c4)n3)cc2)cc1` [Example 17, N-{3-[2-(dimethylamino)ethyl]phenyl}-4-(2-{4-[(4-methoxybenzyl)oxy]phenyl}imidazo[1,2-a]pyridin-3-yl)pyrimidin-2-amine] the value was 101 to 500 nM.
For `CN(C)CCc1cccc(Nc2nccc(-c3c(-c4ccc(OCc5ccccc5F)cc4)nc4ccccn34)n2)c1` [Example 18, N-{3-[2-(dimethylamino)ethyl]phenyl}-4-(2-{4-[(2-fluorobenzyl)oxy]phenyl}imidazo[1,2-a]pyridin-3-yl)pyrimidin-2-amine] the value was 101 to 500 nM; for `CN(C)CCc1cccc(Nc2nccc(-c3c(-c4ccc(OCc5cccc(F)c5)cc4)nc4ccccn34)n2)c1` [Example 19, N-{3-[2-(dimethylamino)ethyl]phenyl}-4-(2-{4-[(3-fluorobenzyl)oxy]phenyl}imidazo[1,2-a]pyridin-3-yl)pyrimidin-2-amine], 101 to 500 nM; for `CN(C)CCc1cccc(Nc2nccc(-c3c(-c4ccc(OCc5ccc(F)cc5)cc4)nc4ccccn34)n2)c1` [Example 20, N-{3-[2-(dimethylamino)ethyl]phenyl}-4-(2-{4-[(4-fluorobenzyl)oxy]phenyl}imidazo[1,2-a]pyridin-3-yl)pyrimidin-2-amine], 101 to 500 nM.
For `CC(Oc1ccc(-c2nc3ccccn3c2-c2ccnc(Nc3cccc(CCN(C)C)c3)n2)cc1)c1ccccc1` (stereo not shown) [Example 21, N-{3-[2-(dimethylamino)ethyl]phenyl}-4-{2-[4-(1-phenylethoxy)phenyl]imidazo[1,2-a]pyridin-3-yl}pyrimidin-2-amine], the 50% inhibitory concentration (IC50) fell in the range of 101 to 500 nM.
In the case of `COc1cc(Cl)ccc1Nc1nccc(-c2c(-c3ccc(OCc4ccccc4)cc3)nc3ccccn23)n1` [Example 22, 4-{2-[4-(benzyloxy)phenyl]imidazo[1,2-a]pyridin-3-yl}-N-(4-chloro-2-methoxyphenyl)pyrimidin-2-amine], the IC50 is more than 1000 nM.
For the molecule `COc1cc(-c2nc3ccccn3c2-c2ccnc(Nc3ccc(CCN4CCCC4)cc3)n2)ccc1OCc1ccccc1` [Example 23, 4-{2-[4-(benzyloxy)-3-methoxyphenyl]imidazo[1,2-a]pyridin-3-yl}-N-[4-(2-pyrrolidin-1-ylethyl)phenyl]pyrimidin-2-amine], the IC50 was 25 to 100 nM.
For `COc1cc(-c2nc3ccccn3c2-c2ccnc(Nc3cccc(CCN4CCCC4)c3)n2)ccc1OCc1ccccc1` [Example 24, 4-{2-[4-(benzyloxy)-3-methoxyphenyl]imidazo[1,2-a]pyridin-3-yl}-N-[3-(2-pyrrolidin-1-ylethyl)phenyl]pyrimidin-2-amine] the value was 25 to 100 nM.
Take `COc1cc(-c2nc3ccccn3c2-c2ccnc(Nc3cccc(N4CCOCC4)c3)n2)ccc1OCc1ccccc1` [Example 25, 4-{2-[4-(benzyloxy)-3-methoxyphenyl]imidazo[1,2-a]pyridin-3-yl}-N-(3-morpholin-4-ylphenyl)pyrimidin-2-amine]: the IC50 lay in the range of 101 to 500 nM.
For `Cn1cc(Nc2nccc(-c3c(-c4ccc(OCc5ccccc5)cc4)nc4ccccn34)n2)cn1` [Example 26, 4-{2-[4-(benzyloxy)phenyl]imidazo[1,2-a]pyridin-3-yl}-N-(1-methyl-1H-pyrazol-4-yl)pyrimidin-2-amine] the value was 101 to 500 nM.
For `OCCn1cc(Nc2nccc(-c3c(-c4ccc(OCc5ccccc5)cc4)nc4ccccn34)n2)cn1` [Example 27, 2-{4-[(4-{2-[4-(benzyloxy)phenyl]imidazo[1,2-a]pyridin-3-yl}pyrimidin-2-yl)amino]-1H-pyrazol-1-yl}ethanol] the value was 101 to 500 nM.
The result for `Fc1ccc(Nc2nccc(-c3c(-c4ccc(OCc5ccccc5)cc4)nc4ccccn34)n2)cc1` [Example 28, 4-{2-[4-(benzyloxy)phenyl]imidazo[1,2-a]pyridin-3-yl}-N-(4-fluorophenyl)pyrimidin-2-amine] reads more than 1000 nM.
